Results on four molecules are retold here after article PMC10112232, “Comparison of Toxicities among Different Bumped Kinase Inhibitor Analogs for Treatment of Cryptosporidiosis” (Antimicrobial Agents and Chemotherapy, 2023).

SMILES strings stand for the structures. Values after ≈ are worked out from the molar mass of the structure shown. Like-named read-outs stand apart in the source and are kept apart here. A value given as a limit tells only on which side of the number the result lay.

The target of series [1] is T1, C. parvum calcium dependent protein kinase 1 (CpCDPK1) (Cryptosporidium parvum, UniProt A3FQ16).
T1 sequence (A3FQ16 1-538): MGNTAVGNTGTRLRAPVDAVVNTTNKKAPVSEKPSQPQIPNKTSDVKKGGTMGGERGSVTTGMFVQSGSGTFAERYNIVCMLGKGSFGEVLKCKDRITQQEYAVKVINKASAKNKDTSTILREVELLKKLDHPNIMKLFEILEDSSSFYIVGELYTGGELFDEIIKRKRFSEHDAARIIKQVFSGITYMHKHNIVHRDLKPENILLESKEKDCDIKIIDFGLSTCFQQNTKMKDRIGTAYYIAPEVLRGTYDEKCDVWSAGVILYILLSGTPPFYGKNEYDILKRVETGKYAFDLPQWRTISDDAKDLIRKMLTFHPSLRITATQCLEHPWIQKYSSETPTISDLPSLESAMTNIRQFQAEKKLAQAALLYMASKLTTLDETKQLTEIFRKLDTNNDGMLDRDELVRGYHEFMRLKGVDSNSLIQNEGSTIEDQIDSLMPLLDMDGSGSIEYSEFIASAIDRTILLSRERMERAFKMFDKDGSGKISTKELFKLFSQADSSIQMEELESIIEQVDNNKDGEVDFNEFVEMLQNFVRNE
Description: In vitro inhibition of CpCDPK1. Type of series: biochemical. The source says:
(§1) Methods for synthesis of BKIs ([17], [23]), efficacy against Nluc expressing C. parvum in infected adult IFN-γ KO mice ([6], [9]), in vivo mouse GI tract tissue exposure by LC/MS-MS analysis ([18], [28]), PK analysis of mouse plasma and brain tissue BKI concentrations by LC/MS-MS analysis ([29]), in vivo rat and dog cardiotoxicity screen ([30]), efficacy against IOWA-II strain C. parvum in infected neonatal calves ([13]), efficacy against C. hominis in infected piglets ([12]), in vitro inhibition of C. parvum CDPK1 (CpCDPK1) and human tyrosine kinase SRC (HsSRC) activity ([31]), in vitro inhibition of hERG ([32]), Nluc expressing C. parvum in vitro growth inhibition in infected HCT-8 cells ([6]), in vitro cytotoxicity in CRL-8155 and HepG2 cells ([29]), and mouse locomotor activity box ([33], [34]) have all been previously described. Analytes were measured by LC/MS-MS on an Acquity ultra performance liquid chromatography (UPLC) system in tandem with a Xevo TQ-S mass spectrometer (Waters, Milford, MA, USA).

The test system of series [2] is Nluc expressing C. parvum. Description: Nluc expressing C. parvum in vitro growth inhibition in infected HCT-8 cells. The format is cell-based. Conditions: Cryptosporidium parvum.
Text: as §1

Series [3] deals with human tyrosine kinase SRC (HsSRC) (Homo sapiens, UniProt P12931). Description: In vitro inhibition of HsSRC. Type of series: biochemical. Conditions: read-out: HsSR IC50.
Chain of human tyrosine kinase SRC (HsSRC) (P12931 whole entry): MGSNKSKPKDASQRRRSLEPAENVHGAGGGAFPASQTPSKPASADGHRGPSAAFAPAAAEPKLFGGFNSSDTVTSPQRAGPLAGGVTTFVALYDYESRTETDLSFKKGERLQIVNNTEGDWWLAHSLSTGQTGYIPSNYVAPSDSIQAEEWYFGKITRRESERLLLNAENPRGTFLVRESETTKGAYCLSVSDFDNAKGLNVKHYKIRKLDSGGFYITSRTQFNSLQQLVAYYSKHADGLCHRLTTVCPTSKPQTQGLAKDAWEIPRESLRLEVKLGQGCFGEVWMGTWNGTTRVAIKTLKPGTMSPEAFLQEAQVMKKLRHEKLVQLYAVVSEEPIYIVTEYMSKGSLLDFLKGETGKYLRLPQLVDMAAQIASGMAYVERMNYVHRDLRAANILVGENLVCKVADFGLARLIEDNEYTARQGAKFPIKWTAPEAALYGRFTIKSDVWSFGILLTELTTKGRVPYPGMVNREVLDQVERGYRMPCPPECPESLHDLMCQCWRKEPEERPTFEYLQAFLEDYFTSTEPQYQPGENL
Text: as §1

Series [4] is described as follows: In vitro cytotoxicity in HepG2 cells. The format is cell-based. The following applies: human.
Text: as §1

The nature of series [5]: In vitro cytotoxicity in CRL-8155 cells. The format is cell-based. The following applies: human.
Text: as §1

A short description of another series: Aqueous solubility. The format is physicochemical. The source says:
TABLE 1 In vitro properties of bumped kinase inhibitors^a | column: Solubility at pH 2 (μM); Solubility at pH 6.5 (μM)

A further series addresses hERG (Homo sapiens, UniProt Q12809). Conditions: cited from earlier work.
Series [6] in a line: Cardiovascular testing in anesthetized dogs. The format is in vivo, dog. Conditions: dogs (data not shown).
Text: as §1

For series [7] the following is noted: rat, in vivo; cited from earlier work.
The subject of a further series is Cryptosporidium. Set-up: method as in PMID 12423984, PMID 11398117, PMID 26568906. The following applies: malnourished children (subtracting placebo efficacy); cited from earlier work.

Chain of hERG (Q12809 whole entry): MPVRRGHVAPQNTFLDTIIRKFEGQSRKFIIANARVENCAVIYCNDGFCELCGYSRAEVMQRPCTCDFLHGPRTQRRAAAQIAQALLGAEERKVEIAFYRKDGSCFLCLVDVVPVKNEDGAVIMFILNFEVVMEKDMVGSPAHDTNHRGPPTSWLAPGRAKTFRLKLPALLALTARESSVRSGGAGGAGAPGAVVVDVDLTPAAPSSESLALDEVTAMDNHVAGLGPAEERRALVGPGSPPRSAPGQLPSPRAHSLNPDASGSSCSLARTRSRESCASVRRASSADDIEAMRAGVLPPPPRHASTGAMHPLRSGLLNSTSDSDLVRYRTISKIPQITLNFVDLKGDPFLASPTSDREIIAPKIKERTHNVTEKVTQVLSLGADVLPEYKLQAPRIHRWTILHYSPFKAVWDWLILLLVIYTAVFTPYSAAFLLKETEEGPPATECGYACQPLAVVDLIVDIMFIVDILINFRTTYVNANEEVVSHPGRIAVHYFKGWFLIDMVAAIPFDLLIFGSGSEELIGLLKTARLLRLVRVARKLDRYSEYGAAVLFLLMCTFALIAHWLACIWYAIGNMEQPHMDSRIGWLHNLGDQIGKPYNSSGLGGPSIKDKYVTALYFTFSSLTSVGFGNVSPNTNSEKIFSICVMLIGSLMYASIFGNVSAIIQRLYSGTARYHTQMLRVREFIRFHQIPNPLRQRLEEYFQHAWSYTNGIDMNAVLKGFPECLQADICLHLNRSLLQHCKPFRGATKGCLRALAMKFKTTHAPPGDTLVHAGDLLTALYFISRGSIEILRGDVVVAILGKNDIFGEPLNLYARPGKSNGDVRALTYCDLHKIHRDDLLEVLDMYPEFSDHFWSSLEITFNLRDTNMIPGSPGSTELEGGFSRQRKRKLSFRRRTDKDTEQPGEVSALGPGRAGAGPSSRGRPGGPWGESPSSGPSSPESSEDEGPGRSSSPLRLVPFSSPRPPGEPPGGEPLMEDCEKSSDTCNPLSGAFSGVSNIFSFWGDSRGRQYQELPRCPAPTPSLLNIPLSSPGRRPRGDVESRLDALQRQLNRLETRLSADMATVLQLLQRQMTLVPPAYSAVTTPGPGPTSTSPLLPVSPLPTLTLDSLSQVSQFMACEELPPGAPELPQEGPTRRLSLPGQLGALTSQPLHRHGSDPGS

In the case of `CC(C)(CCO)n1nc(-c2ccc3cc(O)ccc3c2)c(C(N)=O)c1N` [1770-M5], the IC50 (in general, the concentration that inhibits the measured activity by half) was found to be 0.018 µM in [1] and 5.4 µM in [3]. The EC50 (as a rule, the midpoint of the concentration-response curve) in [2] was 2.1 µM. Besides, the half-maximal cytotoxic concentration (CC50) in series [4] and in series [5] was greater than 80 µM each time. Besides, the solubility (commonly the dissolved amount per volume that the medium holds) in the series “Aqueous solubility” (aqueous medium at pH 2, pH 2, simulated gastric fluid, read-out: Solubility at pH 2) was 89 µM (≈ 31.5 µg/mL); in “Aqueous solubility” (aqueous medium at pH 6.5, pH 6.5, aqueous buffer, read-out: Solubility at pH 6.5), greater than 100 µM.
With `CCOc1ccc2cc(-c3nn(CC4CCN(C)CC4)c4ncnc(N)c34)ccc2c1` [BKI-1294], the “inhibition of hERG in vitro” value on hERG is “submicromolar range”.
Turning to `CCOc1ccc2cc(-c3nn(CC4CCN(C)CC4)c4ncnc(N)c34)ccc2n1` [BKI-1369], the cardiotoxicity in vivo entry in series [6] and in [7] was “Cardiotoxicity was additionally seen” in each case. The “cardiotoxicity in the in vitro hERG assay” value on hERG is “Cardiotoxicity was additionally seen”.
Regarding `CC(=O)Oc1ccccc1C(=O)Nc1ncc([N+](=O)[O-])s1` [Nitazoxanide], the efficacy result in the series on Cryptosporidium is reported as “about 30%”.
